The subject of data set [1] is double molecular type N29+N31 biosensor (6×His LBD(121-427 aa)-SmBiT + 6×His LgBiT-NHPMLMNLLKDN). The method, then:
Several of the obtained E.coli colony were selected, inoculated into 2 mL of LB liquid culture medium (containing 100 µg/mL of ampicillin), and shaking culture was performed at 37°C and 200 rpm for 12 hours. 2 mL of E.coli solution was succeeded in 500 mL of LB liquid culture medium (containing 100 µg/mL of ampicillin) and cultivated at 37°C to OD600=0.4, and then 1 mM isopropyl-1-thio-β-D-galactopyranoside [IPTG (NACALAI TESQUE, INC.) was added and cultivated at 15°C for 3 hours to express proteins. After cultivation, centrifugal separation was performed at 4°C, 5000×g for 10 minutes to collect bacterial cells. Bacterial bodies were suspended in the solution containing 25 mM Tris-HCl, pH 7.4, 10 mM DTT, and protease cocktails of inhibitor (NACALAI TESQUE, Inc.) and then ultrasonic crushing was performed in ice for 15 sec×7 times. Thereafter, centrifugal separation was performed at 4°C, 20,000×g for 30 minutes, and supernatant was collected to obtain biosensor protein solutions N29, N30, N31 and N32.
Thereafter, 10 µl of light emission substrate solution (Nano-Glo Live Cell Assay System, Promega) was added and measured. Ethanol (EtOH) brought in, which is used as a solvent for VDR ligand, was at a final concentration of 1%. Microplate reader Infinite 200 Pro (TECAN) was used as an instrument for measuring light emission.
After plating double molecular type N29+N31 to 96 well plate, 0-50 nM of 25(OH)D3 was added and incubated for 10 minutes at room temperature.
After plating double molecular type N29+N31 to 96 well plate, 0-10 nM of 25(OH)D3 was added and incubated for 10 minutes at room temperature.
After plating double molecular type N29+N31 to 96 well plate, 0-10000 nM calcitroic acid was added and incubated for 10 minutes at room temperature.

In data set [2] the target is T1, LucN-NHPMLMNLLKDN-(GGGGS)×3-LBD-LucC biosensor (split firefly luciferase, LXXLL sequence, hVDR LBD 121-427 aa) (Homo sapiens, UniProt P11473).
T1 construct: expressed in transfected cells; host or cells: COS-7
T1 sequence (P11473 121-427): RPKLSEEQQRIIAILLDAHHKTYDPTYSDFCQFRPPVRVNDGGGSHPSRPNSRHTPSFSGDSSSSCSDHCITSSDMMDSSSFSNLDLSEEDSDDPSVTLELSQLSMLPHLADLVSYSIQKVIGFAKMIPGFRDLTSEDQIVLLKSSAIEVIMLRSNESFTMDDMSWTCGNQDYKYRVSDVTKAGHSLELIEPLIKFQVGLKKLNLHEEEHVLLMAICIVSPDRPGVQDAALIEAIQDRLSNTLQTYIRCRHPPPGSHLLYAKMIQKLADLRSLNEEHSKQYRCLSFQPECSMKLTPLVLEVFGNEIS
The data set is described as follows: Luciferase light emission in COS-7 cells expressing single molecular type biosensor. In kind it is cell-based. As to conditions: 0-1000 nM added, relative light intensity after 90 minutes.

Take `C=C1CC[C@H](O)C/C1=C/C=C1\CCC[C@]2(C)[C@@H]([C@H](C)CCCC(C)(C)O)CC[C@@H]12` [25(OH)D3, 25 hydroxyvitamin D3]: the Detection limit in data set [1] (0-10 nM 25(OH)D3, 10 minutes after light emission substrate solution, in vitro) is listed as 1 pM. Moreover, the “concentration reaching maximal increase of light emission” value in data set [1] (0-50 nM 25(OH)D3, in vitro) was “around 50 nM”. Also, the “relative change of light emission” value in data set [1] (nanoluciferase biosensor protein, 10 min, 1 pM) is “about 1.5 fold”. Besides, the “concentration reaching maximal light emission” value in data set [2] stood at 1000 nM.

On to `C=C1/C(=C\C=C2/CCC[C@]3(C)[C@@H]([C@H](C)CC(=O)O)CC[C@@H]23)C[C@@H](O)C[C@@H]1O` [calcitroic acid], for which the “concentration required for increasing light emission” value in data set [1] (0-10000 nM calcitroic acid, 10 minutes after light emission substrate solution, in vitro) is given as no less than 10 nM. For the same compound, the “VDR affinity relative to 1α,25(OH)2D3” value in data set [1] (stated with the N29+N31 biosensor evaluation) was 1/1000.
